Here are results for 31 molecules from patent publication US12060352B2, “Substituted pyrrolo[2,3-d]pyrimidines having ectonucleotide pyrophosphatase-phosphodiesterase inhibitory activity” (KOREA INSTITUTE OF SCIENCE AND TECHNOLOGY, priority 2021, dated 2024).

Where a name gives a salt, the structure may show the parent alone.

For this test, the target named is T1, human recombinant ENPP1 (Homo sapiens, UniProt P22413).
T1 construct: purchased R&D Systems
T1 sequence (P22413 1-925): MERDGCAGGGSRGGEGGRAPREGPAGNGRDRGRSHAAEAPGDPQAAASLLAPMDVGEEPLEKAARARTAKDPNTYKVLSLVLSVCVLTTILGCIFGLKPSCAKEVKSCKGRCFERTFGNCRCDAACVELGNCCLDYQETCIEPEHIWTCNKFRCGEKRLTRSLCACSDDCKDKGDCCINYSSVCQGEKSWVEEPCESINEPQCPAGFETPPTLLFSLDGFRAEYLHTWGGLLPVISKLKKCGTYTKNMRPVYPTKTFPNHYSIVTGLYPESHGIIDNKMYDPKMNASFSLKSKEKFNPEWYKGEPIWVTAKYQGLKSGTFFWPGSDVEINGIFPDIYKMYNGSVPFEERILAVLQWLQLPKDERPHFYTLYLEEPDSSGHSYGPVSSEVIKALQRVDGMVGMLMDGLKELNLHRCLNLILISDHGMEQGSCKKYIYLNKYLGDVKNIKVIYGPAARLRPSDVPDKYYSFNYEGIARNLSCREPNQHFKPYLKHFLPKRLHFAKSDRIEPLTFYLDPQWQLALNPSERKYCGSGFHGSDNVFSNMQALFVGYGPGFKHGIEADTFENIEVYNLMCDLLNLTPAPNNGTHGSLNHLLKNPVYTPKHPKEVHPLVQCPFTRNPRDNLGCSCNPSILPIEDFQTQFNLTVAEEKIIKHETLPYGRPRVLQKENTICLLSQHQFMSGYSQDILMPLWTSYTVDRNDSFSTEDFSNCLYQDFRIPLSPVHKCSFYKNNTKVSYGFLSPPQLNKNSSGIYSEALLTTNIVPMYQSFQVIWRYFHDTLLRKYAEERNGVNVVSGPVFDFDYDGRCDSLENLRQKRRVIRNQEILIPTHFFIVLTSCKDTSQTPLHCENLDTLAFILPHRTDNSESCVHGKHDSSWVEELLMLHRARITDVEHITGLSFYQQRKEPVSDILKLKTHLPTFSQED
The test is described as follows: ENPP1 enzyme assay with cGAMP substrate (AMP-Glo). Type of test: biochemical. To be noted: human recombinant ENPP1 3 ng per reaction, cGAMP 5 μM, 37° C., 90 minutes, AMP-Glo luminescence. Here is the method:
ENPP1 hydrolyzes nucleotides or nucleotide derivatives to yield nucleoside-5′-monophosphate and pyrophosphate. In addition, ENPP1 hydrolyzes 2′,3′-cGAMP to yield 5′-adenosine monophosphate (AMP) and 5′-guanosine monophosphate (GMP). AMP obtained through the above reaction was measured using an AMP-Glo® kit (Promega). The AMP-Glo® kit includes two reagents. The first reagent terminates the AMP-producing enzyme reaction, removes ATP, and converts the produced AMP into ADP. The second reagent converts ADP into ATP, the ATP being used to generate luminescence in the luciferase reaction. The amount of luminescence measured as described above is proportional to the amount of AMP produced by ENPP1.
The final reaction mixture for an assay system contains 50 mM Tris (pH 8.5) buffer, 250 mM NaCl, 0.5 mM CaCl2, 1 μM ZnCl2, 5% glycerol, and 1% DMSO. […] The reaction was initiated by addition of cGAMP (at a final concentration of 5 μM) and carried out at 37° C. for 90 minutes. At the end of the reaction, 10 μl of AMP-Glo first reagent was added to stop the reaction, and then the reaction mixture was stored at room temperature for 1 hour. After storage, the mixture was added with 20 μl of an AMP detection solution (a mixture of AMP-Glo II reagent and Kinase-Glo at a ratio of 1:100) and stored at room temperature for 1 hour. Luminescence signals were measured using a Victor® plate reader (Perkin Elmer). The maximal activity control (containing an enzyme and a substrate in the presence of 1% DMSO; MAX) and the minimal activity control (containing a substrate and 1% DMSO; MIN) were evaluated simultaneously. In each experiment, serially diluted reference ENPP1 inhibitors were tested together. IC50 values for % residual activity versus compound concentration were determined by fitting inhibition curves using a 3-parameter variable slope in GraphPad Prism® software.
In general, IC50 refers to the concentration at which inhibition is half-maximal. In the case of `NCc1ccc(-c2ccnc3[nH]ccc23)cc1` [Example 10, (4-(1H-pyrrolo[2,3-b]pyridin-4-yl)phenyl)methenamine hydrochloride], the IC50 was over 10000 nM.

Turning to `NCc1ccc(-c2ncnc3[nH]ccc23)cc1` [Example 11, (4-(7H-pyrrolo[2,3-d]pyrimidin-4-yl)phenyl)methenamine hydrochloride], the IC50 is 1000 to 10000 nM.

Regarding `CC(C)(N)c1ccc(-c2ncnc3[nH]ccc23)cc1` [Example 12, 2-(4-(7H-pyrrolo[2,3-d]pyrimidin-4-yl)phenyl)propan-2-amine hydrochloride], the IC50 was over 10000 nM.

For the molecule `CC(C)(N)c1ccc(-c2ncnc3c2ccn3-c2cccnc2)cc1` [Example 15, hydrochloride], the IC50 is over 10000 nM.

With `CC(C)(C)OC(=O)NS(=O)(=O)NCc1ccc(-c2ccnc3[nH]ccc23)cc1` [Example 17, tert-butyl (N-(4-(1H-pyrrolo[2,3-b]pyridin-4-yl)benzyl)sulfamoyl)carbamate], the IC50 is over 10000 nM.

For `NS(=O)(=O)NCc1ccc(-c2ccnc3[nH]ccc23)cc1` [Example 24, N-(4-(1H-pyrrolo[2,3-b]pyridin-4-yl)benzyl)sulfamide hydrochloride], the IC50 was in the range of 1000 to 10000 nM.

Take `NS(=O)(=O)NCc1ccc(-c2ncnc3[nH]ccc23)cc1` [Example 25, N-(4-(7H-pyrrolo[2,3-d]pyrimidin-4-yl)benzyl)sulfamide hydrochloride]: the IC50 lay within 1000 to 10000 nM.

Consider `CC(C)(NS(N)(=O)=O)c1ccc(-c2ncnc3[nH]ccc23)cc1` [Example 26, N-(2-(4-(7H-pyrrolo[2,3-d]pyrimidin-4-yl)phenyl)propan-2-yl)sulfamide hydrochloride], for which the IC50 is under 1000 nM.

Take `CC(NS(N)(=O)=O)c1ccc(-c2ncnc3[nH]ccc23)cc1` (stereo not shown) [Example 27, N-(1-(4-(7H-pyrrolo[2,3-d]pyrimidin-4-yl)phenyl)ethyl)sulfamide hydrochloride]: the IC50 is under 1000 nM.

Consider `NS(=O)(=O)NCc1ccc(-c2ncnc3[nH]ccc23)cc1F` [Example 30, N-(2-fluoro-4-(7H-pyrrolo[2,3-d]pyrimidin-4-yl)benzyl)sulfamide hydrochloride], for which the 50% inhibitory concentration (IC50) was in the range of 1000 to 10000 nM.

As to `NS(=O)(=O)NCc1cccc(-c2ncnc3[nH]ccc23)c1` [Example 34, N-(3-(7H-pyrrolo[2,3-d]pyrimidin-4-yl)benzyl)sulfamide hydrochloride], the IC50 was in the range of 1000 to 10000 nM.

`NS(=O)(=O)N1CCc2cc(-c3ncnc4[nH]ccc34)ccc2C1` [Example 42, 6-(7H-pyrrolo[2,3-d]pyrimidin-4-yl)-3,4-dihydroisoquinoline-2(1H)-sulfonamide hydrochloride]: the IC50 was in the range of 1000 to 10000 nM.

In the case of `NS(=O)(=O)NCC1CCN(c2ncnc3[nH]ccc23)CC1` [Example 43, N-((1-(7H-pyrrolo[2,3-d]pyrimidin-4-yl)piperidin-4-yl)methyl)sulfamide], the IC50 is under 1000 nM.

Turning to `Cn1ccc2c(N3CCC(CNS(N)(=O)=O)CC3)ncnc21` [Example 44, N-((1 (7-methyl-7H-pyrrolo[2,3-d]pyrimidin-4-yl)piperidin-4-yl)methyl)sulfamide], the IC50 was under 1000 nM.

In the case of `NS(=O)(=O)NCC1CCN(c2ncnc3c2ccn3-c2ccccc2)CC1` [Example 45, N-((1-(7-phenyl-7H-pyrrolo[2,3-d]pyrimidin-4-yl)piperidin-4-yl)methyl)sulfamide], the IC50 is under 1000 nM.

With `NS(=O)(=O)NCC1CCN(c2ncnc3c2ccn3C2CC2)CC1` [Example 46, N-((1-(7-cyclopropyl-7H-pyrrolo[2,3-d]pyrimidin-4-yl)piperidin-4-yl)methyl)sulfamide], the 50% inhibitory concentration (IC50) is under 1000 nM.

With `CC(C)n1ccc2c(N3CCC(CNS(N)(=O)=O)CC3)ncnc21` [Example 47, N-((1-(7-isopropyl-7H-pyrrolo[2,3-d]pyrimidin-4-yl)piperidin-4-yl)methyl)sulfamide], the IC50 is over 10000 nM.

Regarding `Cc1cc2c(N3CCC(CNS(N)(=O)=O)CC3)ncnc2[nH]1` [Example 51, N-((1-(6-methyl-7H-pyrrolo[2,3-d]pyrimidin-4-yl)piperidin-4-yl)methyl)sulfamide], the IC50 was under 1000 nM.

`CSc1nc(N2CCC(CCNS(N)(=O)=O)CC2)c2cc[nH]c2n1` [Example 53, N-(2-(1-(2-(methylthio)-7H-pyrrolo[2,3-d]pyrimidin-4-yl)piperidin-4-yl)ethyl)sulfamide]: the IC50 was over 10000 nM.

In the case of `NS(=O)(=O)NCCC1CCN(c2ncnc3[nH]ccc23)CC1` [Example 54, N-(2-(1-(7H-pyrrolo[2,3-d]pyrimidin-4-yl)piperidin-4-yl)ethyl)sulfamide], the IC50 is under 1000 nM.

For `Cc1c[nH]c2ncnc(N3CCC(CN)CC3)c12` [Example 63, (1-(5-methyl-7H-pyrrolo[2,3-d]pyrimidin-4-yl)piperidin-4-yl)methenamine hydrochloride], the IC50 was over 10000 nM.

With `NCC1CCN(c2ncnc3[nH]ccc23)CC1` [Example 65, (1-(7H-pyrrolo[2,3-d]pyrimidin-4-yl)piperidin-4-yl)methenamine hydrochloride], the IC50 lay in the range of 1000 to 10000 nM.

On to `c1nc(N2CCC3(CCNC3)CC2)c2cc[nH]c2n1` [Example 66, 8-(7H-pyrrolo[2,3-d]pyrimidin-4-yl)-2,8-diazaspiro[4.5]decane hydrochloride], for which the IC50 was over 10000 nM.

In the case of `NCC1CCN(c2ncnc3c2ccn3-c2ccco2)CC1` [Example 69, (1-(7-(furan-2-yl)-7H-pyrrolo[2,3-d]pyrimidin-4-yl)piperidin-4-yl)methenamine hydrochloride], the IC50 lay within 1000 to 10000 nM.

For `Cc1c[nH]c2ncnc(N3CCC(CNS(N)(=O)=O)CC3)c12` [Example 78, N-((1-(5-methyl-7H-pyrrolo[2,3-d]pyrimidin-4-yl)piperidin-4-yl)methyl)sulfamide hydrochloride], the IC50 was under 1000 nM.

For `NS(=O)(=O)NC1CCN(c2ncnc3[nH]ccc23)CC1` [Example 79, N-(1-(7H-pyrrolo[2,3-d]pyrimidin-4-yl)piperidin-4-yl)sulfamide hydrochloride], the IC50 lay within 1000 to 10000 nM.

As for `NS(=O)(=O)N1CCC2(CCN(c3ncnc4[nH]ccc34)CC2)C1` [Example 80, 8-(7H-pyrrolo[2,3-d]pyrimidin-4-yl)-2,8-diazaspiro[4.5]decane-2-sulfamide hydrochloride], the IC50 was under 1000 nM.

`CC(NS(N)(=O)=O)C1CCN(c2ncnc3[nH]ccc23)CC1` (stereo not shown) [Example 82, N-(1-(1-(7H-pyrrolo[2,3-d]pyrimidin-4-yl)piperidin-4-yl)ethyl)sulfamide hydrochloride]: the IC50 was under 1000 nM.

For the molecule `NS(=O)(=O)NCC1CCN(c2ncnc3c2ccn3-c2ccco2)CC1` [Example 83, N-((1-7-(furan-2-yl)-7H-pyrrolo[2,3-d]pyrimidin-4-yl)piperidin-4-yl)methyl)sulfamide hydrochloride], the IC50 was under 1000 nM.

With `NS(=O)(=O)NCC1CCN(c2ncnc3c2ccn3-c2cccnc2)CC1` [Example 84, N-((1-(7-(pyridin-3-yl)-7H-pyrrolo[2,3-d]pyrimidin-4-yl)piperidin-4-yl)methyl)sulfamide hydrochloride], the IC50 fell in the range of 1000 to 10000 nM.

As to `O=S(=O)(NCC1CCN(c2ncnc3[nH]ccc23)CC1)c1cccs1` [Example 88, N-((1-(7H-pyrrolo[2,3-d]pyrimidin-4-yl)piperidin-4-yl)methyl)thiophene-2-sulfonamide], the IC50 was 1000 to 10000 nM.
